The values below come from US12435080B2, “sGC stimulators” (Tisento Therapeutics Inc., priority 2016, dated 2025).

One assay addresses T1, sGC enzyme (Homo sapiens, UniProt Q02108+Q02153).
T1 construct: incorporated into these cells detect cGMP formed by the compounds stimulating the sGC enzyme; host or cells: HEK293 cells stably expressing GloSensor 40F cGMP biosensor
T1 sequence (Q02153 1-619): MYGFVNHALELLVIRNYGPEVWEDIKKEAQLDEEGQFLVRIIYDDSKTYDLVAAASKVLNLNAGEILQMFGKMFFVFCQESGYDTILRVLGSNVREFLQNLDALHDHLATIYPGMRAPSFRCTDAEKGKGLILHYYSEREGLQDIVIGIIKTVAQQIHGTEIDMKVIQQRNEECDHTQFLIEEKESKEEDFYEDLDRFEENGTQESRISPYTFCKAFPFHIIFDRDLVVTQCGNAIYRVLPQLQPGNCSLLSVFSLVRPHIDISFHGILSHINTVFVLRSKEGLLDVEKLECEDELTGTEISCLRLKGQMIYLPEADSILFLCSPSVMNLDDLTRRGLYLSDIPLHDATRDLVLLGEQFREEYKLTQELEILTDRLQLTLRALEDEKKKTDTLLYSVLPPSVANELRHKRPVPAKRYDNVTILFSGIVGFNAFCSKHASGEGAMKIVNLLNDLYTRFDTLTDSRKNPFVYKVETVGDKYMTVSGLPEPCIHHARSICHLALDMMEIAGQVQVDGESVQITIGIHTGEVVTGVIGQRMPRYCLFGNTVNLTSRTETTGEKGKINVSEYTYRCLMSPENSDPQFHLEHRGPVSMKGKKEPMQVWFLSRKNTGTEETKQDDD
T1 sequence (Q02108 1-690): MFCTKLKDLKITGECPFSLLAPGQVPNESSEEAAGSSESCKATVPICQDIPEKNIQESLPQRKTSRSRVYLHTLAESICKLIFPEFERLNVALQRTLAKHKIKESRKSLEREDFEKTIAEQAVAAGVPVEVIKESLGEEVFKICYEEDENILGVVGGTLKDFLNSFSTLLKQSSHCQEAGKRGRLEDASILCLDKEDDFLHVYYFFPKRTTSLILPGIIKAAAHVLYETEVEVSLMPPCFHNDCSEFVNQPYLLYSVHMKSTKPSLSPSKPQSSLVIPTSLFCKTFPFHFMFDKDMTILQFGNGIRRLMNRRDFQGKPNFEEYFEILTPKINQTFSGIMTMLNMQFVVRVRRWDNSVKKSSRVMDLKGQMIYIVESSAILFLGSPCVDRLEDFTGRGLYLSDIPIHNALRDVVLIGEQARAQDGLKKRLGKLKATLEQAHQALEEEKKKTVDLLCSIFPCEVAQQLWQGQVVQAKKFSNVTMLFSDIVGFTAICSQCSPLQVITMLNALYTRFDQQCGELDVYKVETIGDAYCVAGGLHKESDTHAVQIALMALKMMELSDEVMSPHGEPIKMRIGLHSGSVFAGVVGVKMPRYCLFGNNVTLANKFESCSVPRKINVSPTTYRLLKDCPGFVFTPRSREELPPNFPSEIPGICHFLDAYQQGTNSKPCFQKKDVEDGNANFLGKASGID
The experiment in a line: cGMP GloSensor cell-based assay, 384-well format. Particulars: Glo-sensor AbsEC50, HEK293 cells expressing GloSensor 40F cGMP; 10 μM DETA-NONOate; normalized to 30 μM Compound Y; compounds in Table IA. The text has this: Human embryonic kidney cells (HEK293) cells expressing GloSensor™ 40F cGMP (Part No: CS182801, Promega) were used to evaluate the activity of test compounds. The luminescent biosensors (engineered luciferase) that were incorporated into these cells detect cGMP formed by the compounds stimulating the sGC enzyme and emit luminescence.
cGMP GloSensor cells were maintained in Dulbecco's Modification of Eagle's Medium (DMEM) supplemented with fetal bovine serum (FBS, 10% final) and hygromycine (200 ug/ml). […] Cells were incubated overnight at 37° C. in a humidified chamber with 5% CO2. The next day, medium was removed and cells were replaced with 40 ul/well of GloSensor™, 2 mM (Promega Cat No E1291). Cells were treated for 90 minutes at 25° C. to allow the substrate to equilibrate in the cells. […] For endpoint SAR screening, data were collected after 55 min incubation at room temperature.
Data were fit using a 4-parameter fit (log(agonist) vs. response—variable slope) using GraphPad Prism Software v.5. n=2 for all compounds. […] Compounds failing to elicit a minimum response of 50% are reported as >30 μM or ND.
For `Fc1ccccc1Cn1nc(-c2ncn[nH]2)c2cccnc21` [Compound I-25], the EC50 is 100 to 1000 nM.

Still in this assay, the particulars now being: HEK293 cells expressing GloSensor 40F cGMP; 10 μM DETA-NONOate; normalized to 30 μM Compound Y; compounds in Table IA; read-out: Glo-sensor AbsEC50.
As to `FC(F)(F)c1n[nH]c(-c2nn(CCC(F)(F)C(F)(F)F)c3cc(Cl)ccc23)n1` [Compound I-3, 6-chloro-1-(3,3,4,4,4-pentafluorobutyl)-3-(3-(trifluoromethyl)-1H-1,2,4-triazol-5-yl)-1H-indazole], the EC50 is 100 to 1000 nM.

With `FC(F)(F)CCn1nc(-c2nc(C(F)(F)F)n[nH]2)c2cccnc21` [Compound I-7, 3-(3-(Trifluoromethyl)-1H-1,2,4-triazol-5-yl)-1-(3,3,3-trifluoropropyl)-1H-pyrazolo[3,4-b]pyridine], the EC50 is above 1000 nM.

In the case of `Fc1cccnc1Cn1nc(-c2nc(C(F)(F)F)n[nH]2)c2cccnc21` [Compound I-13, 1-((3-Fluoropyridin-2-yl)methyl)-3-(3-(trifluoromethyl)-1H-1,2,4-triazol-5-yl)-1H-pyrazolo[3,4-b]pyridine], the EC50 was in the range of 100 to 1000 nM.

Consider `Fc1ccc(F)c(Cn2nc(-c3nc(C(F)(F)F)n[nH]3)c3cccnc32)c1` [Compound I-14, 1-(2,5-Difluorobenzyl)-3-(3-(trifluoromethyl)-1H-1,2,4-triazol-5-yl)-1H-pyrazolo[3,4-b]pyridine], for which the EC50 is below 100 nM.

Consider `FC(F)(F)c1n[nH]c(-c2nn(Cc3cncnc3)c3cc(Cl)ccc23)n1` [Compound I-16, 6-Chloro-1-(pyrimidin-5-ylmethyl)-3-(3-(trifluoromethyl)-1H-1,2,4-triazol-5-yl)-1H-indazole], for which the EC50 is below 100 nM.

In the case of `FC(F)(F)c1n[nH]c(-c2nn(CC(F)(F)C(F)(F)F)c3ncccc23)n1` [Compound I-19, 1-(2,2,3,3,3-Pentafluoropropyl)-3-(3-(trifluoromethyl)-1H-1,2,4-triazol-5-yl)-1H-pyrazolo[3,4-b]pyridine], the EC50 was above 1000 nM.

`Cc1ncc(Cn2nc(-c3nc(C(F)(F)F)n[nH]3)c3ccc(Cl)cc32)cn1` [Compound I-22, 6-Chloro-1-((2-methylpyrimidin-5-yl)methyl)-3-(3-(trifluoromethyl)-1H-1,2,4-triazol-5-yl)-1H-indazole]: the EC50 is below 100 nM.

`Fc1ccccc1Cn1nc(-c2nc(CC(F)(F)F)n[nH]2)c2cccnc21` [Compound I-26, 1-(2-Fluorobenzyl)-3-(3-(2,2,2-trifluoroethyl)-1H-1,2,4-triazol-5-yl)-1H-pyrazolo[3,4-b]pyridine]: the EC50 is below 100 nM.

Staying with this assay, now noted: HEK293 cells expressing GloSensor 40F cGMP; 10 μM DETA-NONOate; normalized to 30 μM Compound Y; compounds in Table IB; read-out: Glo-sensor Abs EC50.
Turning to `Fc1cccn2c(-c3nc(C(F)(F)F)n[nH]3)nc(Cc3cncnc3)c12` [Compound I-15, 8-Fluoro-1-(pyrimidin-5-ylmethyl)-3-(3-(trifluoromethyl)-1H-1,2,4-triazol-5-yl)imidazo[1,5-a]pyridine], the EC50 was below 100 nM.

On to `FC(F)(F)c1n[nH]c(-c2nc(Cc3cncnc3)c3ncccn23)n1` [Compound I-17], for which the EC50 is below 100 nM.

As to `FC(F)(F)c1n[nH]c(-c2nc(CCC(F)(F)C(F)(F)F)n3ncccc23)n1` [Compound I-18, 7-(3,3,4,4,4-pentafluorobutyl)-5-(3-(trifluoromethyl)-1H-1,2,4-triazol-5-yl)imidazo[1,5-b]pyridazine], the EC50 fell in the range of 100 to 1000 nM.

Take `Cc1ncc(Cc2nc(-c3nc(C(F)(F)F)n[nH]3)n3cc(F)ccc23)cn1` [Compound I-23, 6-Fluoro-1-((2-methylpyrimidin-5-yl)methyl)-3-(3-(trifluoromethyl)-1H-1,2,4-triazol-5-yl)imidazo[1,5-a]pyridine pyridine]: the EC50 was in the range of 100 to 1000 nM.

For `Fc1ccccc1Cc1nc(-c2nc(C(F)(F)F)n[nH]2)n2ncccc12` [Compound I-24, 5-(2-Fluorobenzyl)-7-(3-(trifluoromethyl)-1H-1,2,4-triazol-5-yl)imidazo[1,5-b]pyridazine], the EC50 is above 1000 nM.

Take `Cc1ncc(Cc2nc(-c3nc(C(F)(F)F)n[nH]3)n3cc(Cl)cc(F)c23)cn1` [Compound I-27, 6-Chloro-8-fluoro-1-((2-methylpyrimidin-5-yl)methyl)-3-(3-(trifluoromethyl)-1H-1,2,4-triazol-5-yl)imidazo[1,5-a]pyridine]: the EC50 is above 1000 nM.
